Measurements as given in patent US10881653B2, “Tricyclic compounds and their use in the treatment of cancer” (The United States of America, as represented by the …, priority 2015, dated 2021).
Structures can show the parent of a compound that is named as a salt. Where two headings read alike, the source gives them in different places.

Assays:
[1] = target: T1, recombinant thioredoxin reductase 1 (TrxR1) (Homo sapiens, UniProt Q16881); experiment: Inhibition of recombinant TrxR1 (DTNB assay); format: biochemical
T1 sequence (Q16881 1-649): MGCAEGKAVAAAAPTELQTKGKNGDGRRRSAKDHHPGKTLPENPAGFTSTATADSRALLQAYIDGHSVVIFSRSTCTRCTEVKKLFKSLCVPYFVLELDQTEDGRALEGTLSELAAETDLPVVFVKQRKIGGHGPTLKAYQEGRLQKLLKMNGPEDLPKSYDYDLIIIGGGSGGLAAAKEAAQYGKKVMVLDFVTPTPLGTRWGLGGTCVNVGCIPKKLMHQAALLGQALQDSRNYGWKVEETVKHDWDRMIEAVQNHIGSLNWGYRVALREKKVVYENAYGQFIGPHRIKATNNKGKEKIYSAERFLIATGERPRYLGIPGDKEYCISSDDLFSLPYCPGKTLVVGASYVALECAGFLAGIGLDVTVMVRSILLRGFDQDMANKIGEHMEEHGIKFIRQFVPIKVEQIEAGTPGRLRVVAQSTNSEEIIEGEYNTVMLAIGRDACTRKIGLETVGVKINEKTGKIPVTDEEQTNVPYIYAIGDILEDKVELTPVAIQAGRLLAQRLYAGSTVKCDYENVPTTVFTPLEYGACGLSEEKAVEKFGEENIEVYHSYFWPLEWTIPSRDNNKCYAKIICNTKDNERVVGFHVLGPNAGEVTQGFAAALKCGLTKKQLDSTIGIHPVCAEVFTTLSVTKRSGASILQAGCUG
Protocol: (§1) Small molecule inhibition of recombinant thioredoxin reductase 1 (TrxR1) and gluthathione reductase (GR) was examined in 96-well plate format. 15 nM TrxR1 was incubated in the presence of 250 μM NADPH, 0.1 mg/ml BSA, and various concentrations of the compound of Example 1 (1% DMSO final) in 50 mM Tris (pH 7.5) and 2 mM EDTA buffer for 15 minutes. Following the incubation period, 2.5 mM DTNB was added to each well and the change in O.D. at 412 nm was followed. Percent activity was determined using DMSO vehicle and no TrxR1 (blank) controls. 2 nM GR was incubated in the presence of 250 μM NADPH, 0.1 mg/ml BSA, and various concentrations of compounds (1% DMSO final) in 50 mM Tris (pH 7.5) and 2 mM EDTA buffer for 15 minutes. Following the incubation period, 1 mM GSSG was added to each well and the change in O.D. at 340 nm was followed. Percent activity was determined using DMSO vehicle and no GR (blank) controls.

[2] = target: T2, gluthathione reductase (GR) (Homo sapiens, UniProt P00390); experiment: Inhibition of recombinant GR (GSSG assay); format: biochemical
T2 sequence (P00390 44-522): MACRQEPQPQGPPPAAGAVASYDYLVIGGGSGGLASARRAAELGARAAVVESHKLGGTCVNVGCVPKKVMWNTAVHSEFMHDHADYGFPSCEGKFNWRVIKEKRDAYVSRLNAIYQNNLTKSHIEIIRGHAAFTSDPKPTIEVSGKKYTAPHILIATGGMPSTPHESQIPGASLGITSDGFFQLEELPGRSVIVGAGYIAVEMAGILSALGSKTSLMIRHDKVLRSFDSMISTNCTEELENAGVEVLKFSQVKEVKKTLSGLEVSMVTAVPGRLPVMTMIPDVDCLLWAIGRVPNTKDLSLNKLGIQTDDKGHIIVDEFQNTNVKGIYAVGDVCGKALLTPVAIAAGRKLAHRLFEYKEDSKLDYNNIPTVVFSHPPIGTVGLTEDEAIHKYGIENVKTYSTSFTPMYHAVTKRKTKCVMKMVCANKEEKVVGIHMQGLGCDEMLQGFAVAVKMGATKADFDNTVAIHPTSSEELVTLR
Protocol: as §1

[3] = Biological Example 4, assays of Biological Example 1, read-out: TrxR Inhibition
[4] = Biological Example 4, assays of Biological Example 1
[5] = Biological Example 1, 15 nM TrxR1, 250 μM NADPH, 15 minutes incubation, read-out: TrxR inhibition
[6] = Biological Example 1, 2 nM GR, 250 μM NADPH, 15 minutes incubation

Row | SMILES | IC50 [1, 3] [nM] | IC50 [2, 4] [µM] | IC50 [1, 5] [nM] | IC50 [2, 6] [µM]
1 | Cc1cccc(CN2[C@@H]3C(=O)C=C[C@H]2C2C(=O)N(c4cccc(N5CCOCC5)c4)C(=O)C23)c1 (stereo partly drawn) [Example 69, endo-11-(3-Methylbenzyl)-4-(3-(4-morpholino)phenyl)-4,11-diazatricyclo-[5.3.1.0^2,6]undec-9-ene-3,5,8-trione Trifluoroacetate] | 4150 | > 100 | 7400 | > 100
2 | Cc1cccc(CN2[C@@H]3C(=O)C=C[C@H]2[C@@H]2C(=O)N(c4ccc(O)cc4)C(=O)[C@@H]23)c1 (relative stereo) [Example 55, exo-4-(4-Hydroxyphenyl)-11-(3-methylbenzyl)-4,11-diazatricyclo[5.3.1.0^2,6]-undec-9-ene-3,5,8-trione Trifluoroacetate] | 1640 | > 100 | – | –
3 | CCN1C(=O)C2C(C1=O)[C@@H]1C=CC(=O)[C@H]2N1Cc1ccccc1 (relative stereo) [Example 46, endo-11-Benzyl-4-ethyl-4,11-diazatricyclo[5.3.1.0^2,6]undec-9-ene-3,5,8-trione Trifluoroacetate] | 5100 | > 100 | – | –
4 | O=C1C=CC2C3C(=O)N(c4ccccc4)C(=O)C3C1N2Cc1cccc(Cl)c1 (stereo not drawn) [Example 42, exo-11-(3-Chlorobenzyl)-4-phenyl-4,11-diazatricyclo[5.3.1.0^2,6]undec-9-ene-3,5,8-trione Trifluoroacetate] | 760 | 76.4 | – | –
5 | CC1=CC(=O)C2C3C(=O)N(c4ccccc4)C(=O)C3C1N2Cc1ccccc1 (centres unmarked) [Example 12, 9-Benzyl-7-methyl-2-phenyl-3a,4,8,8a-tetrahydro-4,8-epiminocyclohepta[c]-pyrrole-1,3,5(2H)-trione Trifluoroacetate] | 1250 | 41.4 | – | –
6 | Cc1cc(C)cc(CN2C3C=CC(=O)C2C2C(=O)N(c4ccccc4)C(=O)C23)c1 (stereo not drawn) [Example 33, exo-11-(3,5-Dimethylbenzyl)-4-phenyl-4,11-diazatricyclo[5.3.1.0^2,6]undec-9-ene-3,5,8-trione Trifluoroacetate] | 1330 | > 100 | – | –
7 | CS(=O)(=O)c1cccc(CN2[C@@H]3C(=O)C=C[C@H]2[C@@H]2C(=O)N(c4ccccc4)C(=O)[C@@H]23)c1 (relative stereo) [Example 68, exo-11-(3-(Methylsulfonyl)benzyl)-4-phenyl-4,11-diazatricyclo[5.3.1.0^2,6]-undec-9-ene-3,5,8-trione Trifluoroacetate] | 2240 | > 100 | 1880 | > 100
8 | Cc1ccc(F)c(CN2C3C=CC(=O)C2C2C(=O)N(c4ccccc4)C(=O)C23)c1F (stereo not drawn) [Example 38, endo-11-(2,6-Difluoro-3-methylbenzyl)-4-phenyl-4,11-diazatricyclo-[5.3.1.0^2,6]undec-9-ene-3,5,8-trione Trifluoroacetate] | 1360 | 12.3 | – | –
9 | O=C1C=C[C@H]2[C@@H]3C(=O)N(c4ccccc4)C(=O)[C@@H]3[C@@H]1N2CCc1ccccc1 (relative stereo) [Example 7, exo-4-Phenyl-11-(2-phenylethyl)-4,11-diazatricyclo[5.3.1.0^2,6]undec-9-ene-3,5,8-trione Trifluoroacetate] | 1970 | > 100 | 1750 | > 100
10 | CCN1C(=O)[C@@H]2[C@H](C1=O)[C@H]1C(=O)C=C[C@@H]2N1Cc1cccc(C)c1 (relative stereo) [Example 49, exo-4-Ethyl-11-(3-methylbenzyl)-4,11-diazatricyclo[5.3.1.0^2,6]undec-9-ene-3,5,8-trione Trifluoroacetate] | 2530 | > 100 | – | –

Other lines, results leading:

Row | IC50 [1, 3] [nM] | IC50 [2, 4] [µM] | IC50 [1, 5] [nM] | IC50 [2, 6] [µM] | SMILES
11 | 7820 | > 100 | – | – | CC1=CC(=O)[C@@H]2C3C(=O)N(C4CCCCC4)C(=O)C3[C@H]1N2Cc1ccccc1 (stereo partly drawn) [Example 13, endo-11-Benzyl-4-cyclohexyl-10-methyl-4,11-diazatricyclo[5.3.1.0^2,6]undec-9-ene-3,5,8-trione Trifluoroacetate]
12 | 1070 | > 100 | – | – | O=C1C=C[C@H]2[C@@H]3C(=O)N(c4ccccc4)C(=O)[C@@H]3[C@@H]1N2Cc1cccc(F)c1 (relative stereo) [Example 29, exo-11-(3-Fluorobenzyl)-4-phenyl-4,11-diazatricyclo[5.3.1.0^2,6]undec-9-ene-3,5,8-trione Trifluoroacetate]
13 | 4150 | > 100 | – | – | CCN1C(=O)[C@@H]2[C@H](C1=O)[C@H]1C(=O)C=C[C@@H]2N1Cc1ccccc1 (relative stereo) [Example 47, exo-11-Benzyl-4-ethyl-4,11-diazatricyclo[5.3.1.0^2,6]undec-9-ene-3,5,8-trione Trifluoroacetate]
14 | 570 | 31.3 | 2120 | 61.9 | O=C1C=CC2C3C(=O)N(c4ccccc4)C(=O)C3C1N2Cc1ccc(Br)cc1 (centres unmarked) [Example 6, 11-(4-Bromobenzyl)-4-phenyl-4,11-diazatricyclo[5.3.1.0^2,6]undec-9-ene-3,5,8-trione Trifluoroacetate]
15 | 2500 | 30.1 | – | – | O=C1C=C[C@H]2C3C(=O)N(c4ccccc4)C(=O)C3[C@@H]1N2Cc1cc(F)ccc1F (mixture of isomers) [Example 26, endo 11-(2,5-Difluorobenzyl)-4-phenyl-4,11-diazatricyclo[5.3.1.0^2,6]undec-9-ene-3,5,8-trione Trifluoroacetate]
16 | 3830 | > 100 | – | – | CS(=O)(=O)c1ccc(CN2[C@@H]3C(=O)C=C[C@H]2[C@@H]2C(=O)N(c4ccccc4)C(=O)[C@@H]23)cc1 (relative stereo) [Example 23, exo-11-(4-(Methylsulfonyl)benzyl)-4-phenyl-4,11-diazatricyclo[5.3.1.0^2,6]-undec-9-ene-3,5,8-trione Trifluoroacetate]
17 | 1630 | > 100 | – | – | CCc1ccc(N2C(=O)[C@@H]3[C@H](C2=O)[C@H]2C(=O)C=C[C@@H]3N2Cc2cccc(C)c2)cc1 (relative stereo) [Example 59, exo-4-(4-Ethylphenyl)-11-(3-methylbenzyl)-4,11-diazatricyclo[5.3.1.0^2,6]-undec-9-ene-3,5,8-trione Trifluoroacetate]
18 | 5300 | > 100 | 4520 | > 100 | Cc1cccc(CN2[C@@H]3C(=O)C=C[C@H]2[C@@H]2C(=O)N(c4c(C)cccc4C)C(=O)[C@@H]23)c1 (relative stereo) [Example 65, exo 4-(2,6-Dimethylphenyl)-11-(3-methylbenzyl)-4,11-diazatricyclo-[5.3.1.0^2,6]undec-9-ene-3,5,8-trione Trifluoroacetate]
19 | 4610 | > 100 | – | – | CN1C(=O)[C@@H]2[C@H](C1=O)[C@H]1C(=O)C=C[C@@H]2N1Cc1ccccc1 (relative stereo) [Example 51, exo-11-Benzyl-4-methyl-4,11-diazatricyclo[5.3.1.0^2,6]undec-9-ene-3,5,8-trione Trifluoroacetate]
20 | 1300 | > 100 | – | – | O=C1C=C[C@H]2[C@@H]3C(=O)N(c4ccccc4)C(=O)[C@@H]3[C@@H]1N2Cc1ccccc1Cl (relative stereo) [Example 24, exo-11-(2-Chlorobenzyl)-4-phenyl-4,11-diazatricyclo[5.3.1.0^2,6]undec-9-ene-3,5,8-trione Trifluoroacetate]
